Holding throughout (type): cell-based
The subject of one data set is HIV-1 (IIIB). The experiment in a line: Antiviral assay in MT-4 cells. To be noted: Human immunodeficiency virus 1, IIIB, MT4, 120 h, HIV-1 IIIB infected MT-4 cells, 5 days, Cell Titer Glo; read-out: MT4 EC50. As for the experimental part:
Antiviral Assay in MT-4 Cells
(§1) Compounds were tested in a high-throughput 384-well assay format for their ability to inhibit the replication of HIV-1 (IIIB) in MT-4 cells. Compounds were serially diluted (1:3) in DMSO on 384-well polypropylene plates and further diluted 200-fold into complete RPMI media (10% FBS, 1% P/S) using the Biotek Micro Flow and Labcyte ECHO acoustic dispenser. Each plate contained up to 8 test compounds, with negative (No Drug Control) and 5 μM AZT positive controls. MT-4 cells were pre-infected with 10 μL of either RPMI (mock-infected) or a fresh 1:250 dilution of HIV-1 IIIB concentrated virus stock. Infected and uninfected MT-4 cells were further diluted in complete RPMI media and added to each plate using a Micro Flow dispenser. After 5 days incubation in a humidified and temperature controlled incubator (37° C.), Cell Titer Glo (Promega) was added to the assay plates and chemiluminescence read using an Envision plate-reader. EC50 values were defined as the compound concentration that causes a 50% decrease in luminescence signal, and were calculated using a sigmoidal dose-response model to generate curve fits.

The nature of data set [1]: Cytotoxicity assay in MT-4 cells. To be noted: human. As for the experimental part: as §1, with “fits. Cytotoxicity Assay in MT-4 Cells Assays were performed as above except uninfected MT-4 cells were added to each well containing test compound. In addition, 10 μM puromycin was added to the last column of each assay plate to assess a base level of cytotoxicity.” for “fits.”

The subject of another data set is pLai RLuc reporter virus. The experiment in a line: HIV MT-4 serum shift antiviral reporter assay. To be noted: Human immunodeficiency virus 1, 72 h. As for the experimental part: To quantify the amount of protein binding to human serum, compounds were serially diluted (1:3) in DMSO and acoustically transferred onto 384-well assay plates via a Labcyte ECHO robot. Each plate contained up to 8 test compounds, including negative and positive controls, (DMSO, 5 μM AZT respectively). Assay plates were prepared in duplicate, and tested in either CCM (cell culture media) or HS/CCM (human serum/cell culture media). MT-4 cells were first pre-infected with pLai RLuc reporter virus for 2 h at 37° C., then further diluted in either CCM (RPMI media, 10% FBS, 1% P/S) or HS/CCM (RPMI media, 10% FBS, 50% HS, 1% P/S), and subsequently added to each plate using a Biotek Micro Flow dispenser. After a 72-h incubation in a humidified and temperature controlled incubator (37° C.), Renilla Glo (Promega) was added to all assay plates and chemiluminescence read using an Envision plate-reader. EC50 values were defined as the compound concentration that causes a 50% decrease in luminescence signal, and were calculated using a sigmoidal dose-response model to generate curve fits. To determine the amount of protein binding, EC50 fold shifts (or EC50 shifts) were calculated by dividing EC50 (HS/CCM)/EC50 (CCM).
For orientation: A reporter such as luciferase makes a cellular process visible.

Setting [2] is: uninfected MT-4 cells, 5 days, Cell Titer Glo, read-out: CC50.
[3] abbreviates: read-out: RLUC 50% HS (nM), HS/CCM: 50% human serum, 72 h, Renilla Glo.
[4] abbreviates: read-out: RLUC CCM (nM), cell culture media (RPMI, 10% FBS), 72 h, Renilla Glo.

Like-named read-outs stand apart in the source and are kept apart here.

On to `C[C@H]1C=CCN2CN1C(=O)c1c(O)c(=O)c(C(=O)NCc3c(F)cc(F)cc3F)cn12` [Example C5, (10S)-6-hydroxy-10-methyl-5,8-dioxo-N-[(2,4,6-trifluorophenyl)methyl]-1,2,9-triazatricyclo[7.4.1.02,7]tetradeca-3,6,11-triene-4-carboxamide], for which the EC50 in the data set with HIV-1 (IIIB) amounted to 3.4 nM; in the data set on pLai RLuc reporter virus (setting [3]) it was 40.4 nM; in the data set on pLai RLuc reporter virus (setting [4]), 0.42 nM. The CC50 at 5 days in data set [1] (setting [2]) was 14200 nM.
Regarding `O=C(NCc1c(F)cc(F)cc1F)c1cn2c(c(O)c1=O)C(=O)N1CCCCN2C1Cc1ccccc1` (centres unmarked) [Example C6, 13-benzyl-8-hydroxy-7,9-dioxo-N-(2,4,6-trifluorobenzyl)-2,3,4,5,7,9-hexahydro-1,6-methanopyrido[1,2-b][1,2,5]triazonine-10-carboxamide], the EC50 turned out to be 7.5 nM with HIV-1 (IIIB), 23.1 nM in the data set on pLai RLuc reporter virus (setting [3]) and 3.5 nM in the data set with pLai RLuc reporter virus (setting [4]). In addition, the CC50 at 5 days in data set [1] (setting [2]) was determined as 9880 nM.
`C[C@H]1C=CC2(COC(C)(C)C2)N2CN1C(=O)c1c(O)c(=O)c(C(=O)NCc3c(F)cc(F)cc3F)cn12` (stereo partly drawn) [Example C9, (1′S,5′S)-8′-hydroxy-5,5,5′-trimethyl-7′,9′-dioxo-N-(2,4,6-trifluorobenzyl)-4,5,7′,9′-tetrahydro-2H,5′H-spiro[furan-3,2′-[1,6]methanopyrido[1,2-b][1,2,5]triazonine]-10′-carboxamide] yielded a CC50 at 5 days in data set [1] (CC50 (nM)) of 25300 nM.
As for `C[C@@H]1C/C=C\[C@H](C)N2CN1n1cc(C(=O)NCc3c(F)cc(F)cc3F)c(=O)c(O)c1C2=O` [Example C12, (1R,2S,6R,Z)-9-hydroxy-2,6-dimethyl-8,10-dioxo-N-(2,4,6-trifluorobenzyl)-3,6,8,10-tetrahydro-2H-1,7-methanopyrido[1,2-b][1,2,5]triazecine-11-carboxamide], the EC50 came to 3.4 nM in the data set with HIV-1 (IIIB), 273 nM in the data set with pLai RLuc reporter virus (setting [3]) and 0.77 nM in the data set with pLai RLuc reporter virus (setting [4]). In data set [1] (setting [2]), the half-maximal cytotoxic concentration (CC50) at 5 days was 10800 nM.
For the compound `C[C@@H]1CCCCN2CN1n1cc(C(=O)NCc3ccc(F)cc3F)c(=O)c(O)c1C2=O` [Example C13, (1S,2R)—N-(2,4-difluorobenzyl)-9-hydroxy-2-methyl-8,10-dioxo-3,4,5,6,8,10-hexahydro-2H-1,7-methanopyrido[1,2-b][1,2,5]triazecine-11-carboxamide], the EC50 with HIV-1 (IIIB) was 1.3 nM; in the data set on pLai RLuc reporter virus (setting [3]), 4.07 nM; in the data set on pLai RLuc reporter virus (setting [4]), 0.25 nM. In addition, the CC50 at 5 days in data set [1] (setting [2]) came out at 8870 nM.
For the compound `C[C@@H]1C/C=C\CN2CN1n1cc(C(=O)NCc3c(F)cc(F)cc3F)c(=O)c(O)c1C2=O` [Example C16, (1S,2R,Z)-9-hydroxy-2-methyl-8,10-dioxo-N-(2,4,6-trifluorobenzyl)-3,6,8,10-tetrahydro-2H-1,7-methanopyrido[1,2-b][1,2,5]triazecine-11-carboxamide], the EC50 in the data set on HIV-1 (IIIB) came to 1.1 nM; with pLai RLuc reporter virus (setting [3]), 19.4 nM; in the data set on pLai RLuc reporter virus (setting [4]) it was 0.32 nM. The CC50 at 5 days in data set [1] (setting [2]) amounted to 11400 nM.
For `C[C@@H]1CCCCN2CN1n1cc(C(=O)NCc3c(F)cc(F)cc3F)c(=O)c(O)c1C2=O` [Example C17, (1S,2R)-9-hydroxy-2-methyl-8,10-dioxo-N-(2,4,6-trifluorobenzyl)-3,4,5,6,8,10-hexahydro-2H-1,7-methanopyrido[1,2-b][1,2,5]triazecine-11-carboxamide], the EC50 in the data set with HIV-1 (IIIB) is 0.91 nM; with pLai RLuc reporter virus (setting [3]), 7.12 nM; with pLai RLuc reporter virus (setting [4]) it was 0.16 nM. Also, the CC50 at 5 days in data set [1] (setting [2]) was 11200 nM.
Consider `C[C@@H]1CCC[C@@H](C)N2CN1C(=O)c1c(O)c(=O)c(C(=O)NCc3c(F)cc(F)cc3F)cn12` [Example C22, (1S,2R,6R)-9-hydroxy-2,6-dimethyl-8,10-dioxo-N-(2,4,6-trifluorobenzyl)-3,4,5,6,8,10-hexahydro-2H-1,7-methanopyrido[1,2-b][1,2,5]triazecine-11-carboxamide], for which the EC50 in the data set with HIV-1 (IIIB) is 2.2 nM. Further, in data set [1] (setting [2]), the CC50 at 5 days is 16300 nM.
Take `CO[C@@H]1[C@H](OC)[C@@H](C)N2CN(C(=O)c3c(O)c(=O)c(C(=O)NCc4c(F)cc(F)cc4F)cn32)[C@H]1C` [Example C32, (1S,2R,3R,4S,5S)-8-hydroxy-3,4-dimethoxy-2,5-dimethyl-7,9-dioxo-N-(2,4,6-trifluorobenzyl)-2,3,4,5,7,9-hexahydro-1,6-methanopyrido[1,2-b][1,2,5]triazonine-10-carboxamide]: the EC50 with HIV-1 (IIIB) stood at 2.4 nM; with pLai RLuc reporter virus (setting [3]), 1.04 nM; with pLai RLuc reporter virus (setting [4]), 0.55 nM. For the same compound, the CC50 at 5 days in data set [1] (setting [2]) was found to be 28000 nM.
As to `CO[C@@H]1C[C@@H](C)N2CN(C(=O)c3c(O)c(=O)c(C(=O)NCc4c(F)cc(F)cc4F)cn32)[C@H]1C` [Example C33, (1S,2R,4R,5S)-8-hydroxy-4-methoxy-2,5-dimethyl-7,9-dioxo-N-(2,4,6-trifluorobenzyl)-2,3,4,5,7,9-hexahydro-1,6-methanopyrido[1,2-b][1,2,5]triazonine-10-carboxamide], the EC50 worked out at 4 nM in the data set on HIV-1 (IIIB), 4.3 nM in the data set on pLai RLuc reporter virus (setting [3]) and 1.8 nM in the data set with pLai RLuc reporter virus (setting [4]). In addition, the CC50 at 5 days in data set [1] (setting [2]) amounted to 32900 nM.
For the compound `C[C@@H]1C[C@H](F)[C@H](C)N2CN1n1cc(C(=O)NCc3c(F)cc(F)cc3F)c(=O)c(O)c1C2=O` [Example C34, (1S,2R,4S,5S)-4-fluoro-8-hydroxy-2,5-dimethyl-7,9-dioxo-N-(2,4,6-trifluorobenzyl)-2,3,4,5,7,9-hexahydro-1,6-methanopyrido[1,2-b][1,2,5]triazonine-10-carboxamide], the EC50 with HIV-1 (IIIB) is 1.4 nM; in the data set on pLai RLuc reporter virus (setting [3]), 938 nM; in the data set with pLai RLuc reporter virus (setting [4]), 0.59 nM. Moreover, the CC50 at 5 days in data set [1] (setting [2]) was 8360 nM.
Turning to `C[C@H]1CC[C@@H](CF)N2CN1C(=O)c1c(O)c(=O)c(C(=O)NCc3ccc(F)cc3F)cn12` [Example C45, (1S,2S,5S)—N-(2,4-difluorobenzyl)-2-(fluoromethyl)-8-hydroxy-5-methyl-7,9-dioxo-2,3,4,5,7,9-hexahydro-1,6-methanopyrido[1,2-b][1,2,5]triazonine-10-carboxamide], in the data set with HIV-1 (IIIB), the EC50 stood at 1.8 nM. Also, the CC50 at 5 days in data set [1] (setting [2]) amounted to 11000 nM.
As to `C[C@H]1CCC(C)(C)N2CN1C(=O)c1c(O)c(=O)c(C(=O)NCc3c(F)cc(F)cc3F)cn12` [Example C87, (1S,5S)-8-hydroxy-2,2,5-trimethyl-7,9-dioxo-N-(2,4,6-trifluorobenzyl)-2,3,4,5,7,9-hexahydro-1,6-methanopyrido[1,2-b][1,2,5]triazonine-10-carboxamide], the EC50 with pLai RLuc reporter virus (setting [3]) came out at 198 nM; with pLai RLuc reporter virus (setting [4]), 0.68 nM.
`CC1N2C(=O)c3c(O)c(=O)c(C(=O)NCc4c(F)cc(F)cc4F)cn3N1[C@H](C)C=C[C@@H]2C` (stereo partly drawn) [Example C100, (1S,2R,5S)-8-hydroxy-2,5,13-trimethyl-7,9-dioxo-N-(2,4,6-trifluorobenzyl)-2,5,7,9-tetrahydro-1,6-methanopyrido[1,2-b][1,2,5]triazonine-10-carboxamide]: the EC50 in the data set on HIV-1 (IIIB) was 0.8 nM. The CC50 at 5 days in data set [1] (setting [2]) turned out to be 16200 nM.
In the case of `CCC1N2C(=O)c3c(O)c(=O)c(C(=O)NCc4c(F)cc(F)cc4F)cn3N1[C@H](C)C=C[C@@H]2C` (stereo partly drawn) [Example C101, (1S,2R,5S)-13-ethyl-8-hydroxy-2,5-dimethyl-7,9-dioxo-N-(2,4,6-trifluorobenzyl)-2,5,7,9-tetrahydro-1,6-methanopyrido[1,2-b][1,2,5]triazonine-10-carboxamide], the EC50 in the data set on HIV-1 (IIIB) amounted to 19.7 nM. The CC50 at 5 days in data set [1] (setting [2]) amounted to 33500 nM.

In general, CC50 refers to the concentration that lowers cell viability or growth by half.

The record behind these values is patent US11613546B2, “Substituted pyridotriazine compounds and uses thereof” (Gilead Sciences, Inc., priority 2021, dated 2023).
